# Data reported in US11351134B2, “Small molecule agents, compositions, and formulations, for internal use, displaying inhibitory activity against gram-positive and/or gram-negative organisms” (NATUREZA, INC., priority 2017, dated 2022).
# Where two headings read alike, the source gives them in different places.
# Key:
# S. epidermidis = assay: Broth microdilution MIC of lecithin/chitosan particle compositions; format: cell-based; conditions: for MIC: Staphylococcus epidermidis
# Description: (§1) Initially, to determine basic characteristics, each active component was separately mixed, generally under agitated conditions, with water, and each was miscible with water. Each, after being mixed with water, was tested in a broth microdilution assay, against a variety of bacteria using amounts of the each of the lauric acid derivatives, ranging from about 0.0009 wt. % to about 8 wt. %. The bacteria included Escherichia coli, and Staphylococcus aureus (including MRSA strains). The minimum inhibitory concentration (MIC) needed to prevent growth of the target bacteria was evaluated based on a method published by Clinical Laboratory Standards Institute (CLSI), broth microdilution method M-07 (M07). […] Each of the samples containing one of the lauric acid derivatives was compared with a positive control, decanoic acid.
# (§2) For TABLES 1 to 3, compositions were generally prepared as described above, and as further outlined in this paragraph. For these examples, the active component, as a lauric acid derivative or lauric acid, was suspended in an organic solvent, chloroform, and then mixed with water, under robust agitation. The amount of water to the amount of chloroform was at least about 2:1, and could be as high as 10:1. Chloroform was then evaporated (e.g., under vacuum using a freeze dryer). After removal of the chloroform, a 2.2% lecithin solution in an acetate buffer (e.g., 98 mM acetic acid and 2 mM sodium acetate) was prepared and added, so the final amount of the active component was about 1 part active component mixture and about 9 parts of the 2.2% lecithin solution. Of course, it is noted that other ranges to achieve final amount of the active component as described above (e.g., active component mixture and lecithin solution) may also be utilized. Cholesterol could also be optionally added. The mixture of lecithin and the active component was mixed and sonicated, and then a solution of about 1.5% chitosan was added. Thereafter, the entirety of the mixture containing the lecithin and the active component was further blended, in which a final ratio was about 1 part active component to about 9 parts of the 2.2% lecithin solution to about 10 parts of the 1.5% chitosan solution. The pH was then varied, to a pH of 5, or a pH of 7, or a pH of 9. In some mixtures having a pH of 7, a chemical agent imparting a positive charge to the chitosan was included in a form of glycol chitosan. In these tests, the chemical agent used was glycol. In these examples, the amount of chemical agent, glycol was about one molecule glycol moiety to one molecule chitosan sacharide unit; higher amounts of glycol moieties are also acceptable, while lower amounts of glycol moieties were often found to decrease overall inhibitory activity associated with a composition when formed and tested in vitro. It is noted that negatively charged chitosan containing particles were prepared. […] After mixing, the mixtures could each be filtered through a […] filter. In some tests, the mixtures were sonicated before filtering. Sonication produced small particles. In some studies, particles were freeze dried as a powder (generally, after mixing, sonicating and filtering).
# (§3) The positive controls were prepared and evaluated in a similar manner. All prepared samples were tested using a broth microdilution test.
# Escherichia coli = assay: Broth microdilution (CLSI M07) of active component mixed with water only; format: cell-based; conditions: active component mixed with water only (miscible state); about 0.0009 wt. % to about 8 wt. %
# Description: as §1
# [1] = tested on: Staphylococcus aureus (including MRSA strains); assay: as above; format: cell-based; conditions: active component mixed with water only (miscible state); about 0.0009 wt. % to about 8 wt. %
# Description: as §1
# E. coli = assay: Broth microdilution MIC of lecithin/chitosan particle compositions; format: cell-based; conditions: for MIC: Escherichia coli; for MIC (mg/ml) for E. coli (chitosan prep. mixture was at pH 5 or at pH 7): prep. mixture pH 5 or pH 7
# Description: as §1, §2, §3
# [2] = tested on: representative Gram-positive pathogens and yeast; assay: Broth microdilution of lecithin/chitosan compositions, sonicated and/or filtered; format: cell-based; conditions: composition with lecithin and chitosan
# Description: In a further preparation, lauric acid derivative, 12-aminododecanoic acid or 12-amino-1-dodecanoic acid methyl ester, was suspended individually (and independently) in an organic solvent, chloroform, and mixed with water, generally under agitated conditions. Here, for each sample, the amount of water to the amount of chloroform was at least 2:1, and was as high as 10:1. This was followed by chloroform evaporation, generally under vacuum using a freeze dryer. After removal of the chloroform, a lecithin solution was added to each sample. The lecithin was in a solution of acetic acid (e.g., 98 mM acetic acid and 2 mM sodium acetate), in which the amount of lecithin in solution was between about 1% to 5%. With addition of lecithin, each sample mixture contained up to about 4.8% lecithin (or generally about 5% or less), and up to about 7.8% of one of the lauric acid derivatives (or generally about 8% or less). pH of the solution was neutral. It is noted that the lecithin should be in a suitable form (e.g., solution or granules) acceptable for internal utilization (e.g., pharmaceutical grade). The lecithin may also include cholesterol, or other lecithin variants as described above, with similar results. Chitosan was then added to each of the samples, and each sample was then independently sonicated, followed by independent sterilization by high pressure filtration. […]
# [3] = tested on: Gram-positive pathogens and Gram-negative pathogens; assay: In vitro inhibitory activity of chitosan- or carrier-containing particles; format: cell-based
# Description: as §2, §3
# This also occurs when the chitosan- or carrier-containing particle includes an active component that has a log P value that is less than 4 and includes a methyl and/or ethyl side chain (e.g., 12-amino-1-dodecanoic acid methyl ester). […]
# [4] = tested on: gram-positive organisms, Streptococcus group A and Streptococcus beta-hemolytic non-A, and S. aureus, as well as Candida; conditions: background reports; free acid or ester used as such, in vitro/topical; cited from earlier work
# [5] = format: in vivo; conditions: mice, oral capsules approximately 4 mg active component in chitosan-containing particles, three times per day for seven days
# Description: Laboratory trials have shown that no resistance has developed in pathogens exposed to the compositions described herein, even with long term, repeated exposure (data not shown). In addition, no intrinsic resistance can or has been detected in target pathogens. […] A placebo group is also included, in which a group of 10 mice are given a placebo set of capsules, orally, three times per day and continued for seven days, each of the placebo set of capsules containing similarly prepared chitosan-containing particles without an active component, the preparation being generally as described herein. Initial mice have been infected with Salmonella typhimurium prior to oral delivery of one of the set of capsules. The capsules may be vegetable capsules. The capsules may have an enteric coating. For delivery, a formulation may be prepared in a manner understood in the relevant art. For delivery, a formulation may be in at least any one or more of the following forms: liquid, capsule, dried powder, mist, and the like. For delivery, the formulation will contain pharmaceutical grade materials, including one or more excipients and or fillers for internal and/or topical delivery in sufficient amounts known to those of skill in the relevant art. Flavors, colors, sugars, sugar-substitutes, and the like may also be included in any of the formulations, as is understood to those of skill in the relevant art.
# [6] = Table 3, lecithin/chitosan particle composition, prep. mixture pH 5 or pH 7, maximum concentration tested 10 mg/ml
# [7] = Table 3, lecithin/chitosan particle composition, prep. mixture pH 5 or pH 7, maximum concentration tested 10 mg/ml, read-out: MIC (mg/ml) S. epidermidis (chitosan prep. mixture at pH 5 or at pH 7)
# [8] = lecithin/chitosan particle composition, prep. mixture pH 5 or pH 7, maximum concentration tested 10 mg/ml, read-out: MIC (mg/ml) for S. epidermidis (chitosan prep. mixture was at pH 5 or at pH 7)
# [9] = lecithin/chitosan particle composition, maximum concentration tested 10 mg/ml
# [10] = synthesis (with chitosan) at pH 7 with positively charged chitosan
compound,measurement,setting,value
CCCCCCCCCCCC(=O)OCC(O)CO (racemic) [1-lauroyl-rac-glycerol],MIC,S. epidermidis; read-out: MIC (mg/ml) S. epidermidis (chitosan prep. mixture at pH 5 or at pH 7),10 mg/mL
CCCCCCCCCC(=O)CC(=O)NC1CCCCC1=O (stereo not drawn) [3-oxo-N-(2-oxocyclohexyl) dodecanamide],MIC (mg/ml) S. epidermidis (chitosan prep. mixture at pH 5 or at pH 7),S. epidermidis; [6],10 mg/ml
CCCCCCCCCCCC(=O)Oc1ccc([N+](=O)[O-])cc1 [4-nitrophenyl dodecanoate],MIC,S. epidermidis; [7],10 mg/mL
O=C(O)CCCCCCCCCCCNc1ccc([N+](=O)[O-])c2nonc12 [12-(7-nitrobenzofurazan-4-ylamino) dodecanoic acid],MIC,S. epidermidis; [7],10 mg/mL
NCCCCCCCCCCCC(=O)O [12-aminododecanoic acid],"Inhibitory activity against Gram-negative bacteria (e.g., E. coli)",Escherichia coli,"does not, in the miscible state, demonstrate inhibitory activity"
same,"Inhibitory activity against Gram-positive bacteria (e.g., S. aureus)",[1],"does not, in the miscible state, demonstrate inhibitory activity"
same,MIC,S. epidermidis; [8],10 mg/mL
same,MIC,"E. coli; lecithin/chitosan particle composition, prep. mixture pH 9, maximum concentration tested 10 mg/ml, read-out: MIC (mg/ml) for E. coli (chitosan prep. mixture was at pH 9)",10 mg/mL
same,MIC,"E. coli; lecithin/glycol chitosan particle composition, prep. mixture pH 7, maximum concentration tested 10 mg/ml, read-out: MIC (mg/ml) for E. coli (chitosan prep. mixture was at pH 7 with glycol chitosan)",10 mg/mL
same,MIC (mg/ml) for E. coli (chitosan prep. mixture was at pH 5 or at pH 7),E. coli; [9],— (no inhibitory activity)
same,Growth inhibitory activity against representative Gram-positive pathogens and yeast,[2],exhibited growth inhibitory activity
same,Inhibitory activity against both Gram-positive pathogens and Gram-negative pathogens,[3]; [10],stronger inhibitory activity as well as broad spectrum activity
CCCCCCCCCCCC(=O)OCc1ccccc1 [benzyl laurate],MIC,S. epidermidis; [7],10 mg/mL
CCCCCCCCCCCC(=O)OCCCC [butyl laurate],MIC,S. epidermidis; [7],10 mg/mL
CCCCCCCCCCCC(=O)OCC [ethyl laurate],Inhibitory activity reported in the literature,[4],inactive
CCCCCCCCCCCC(=O)OCCCCCC [hexyl laurate],MIC,S. epidermidis; [7],10 mg/mL
CCCCCCCCCCCC(=O)OCCC(C)C [isoamyl laurate],MIC,S. epidermidis; [7],10 mg/mL
CCCCCCCCCCCC(=O)OC(C)C [isopropyl laurate],MIC,S. epidermidis; [7],10 mg/mL
"CCCCCCCCCCCC(=O)O [lauric acid, dodecanoic acid]",Inhibitory activity reported in the literature,[4],weak inhibitory activity
CCCCCCCCCCCC(=O)OC [methyl laurate],Inhibitory activity reported in the literature,[4],ineffective
CCCCCCCCCCCC(=O)OCC(O)CO (stereo not drawn) [monolaurin],MIC (mg/ml) S. epidermidis (chitosan prep. mixture at pH 5 or at pH 7),S. epidermidis; [6],10 mg/ml
"CCCCCCCC(=O)O [octanoic acid, reference compound]",MIC,S. epidermidis; [7],10 mg/mL
same,MIC,S. epidermidis; [8],10 mg/mL
same,MIC (mg/ml) for E. coli (chitosan prep. mixture was at pH 5 or at pH 7),E. coli; [9],— (no inhibitory activity)
same,Inhibitory activity against representative Gram-negative bacteria,"E. coli; particulated compositions manipulated to impart positivity (glycol chitosan at neutral pH, or prepared at pH 9)",not found to exhibit inhibitory activity
CCCCCCCCCCCC(=O)OCCCCC [pentyl laurate],MIC,S. epidermidis; [7],10 mg/mL
sucrose monolaurate,MIC (mg/ml) for S. epidermidis (chitosan prep. mixture was at pH 5 or at pH 7),"S. epidermidis; lecithin/chitosan particle composition, prep. mixture pH 5 or pH 7, maximum concentration tested 10 mg/ml",10 mg/ml
same,MIC (mg/ml) for E. coli (chitosan prep. mixture was at pH 5 or at pH 7),E. coli; [9],— (no inhibitory activity)
same,MIC (mg/ml) for E. coli (chitosan prep. mixture was at pH 9),"E. coli; lecithin/chitosan particle composition, prep. mixture pH 9, maximum concentration tested 10 mg/ml",10 mg/ml
same,MIC (mg/ml) for E. coli (chitosan prep. mixture was at pH 7 with glycol chitosan),"E. coli; lecithin/glycol chitosan particle composition, prep. mixture pH 7, maximum concentration tested 10 mg/ml",10 mg/ml
same,Inhibitory activity against both Gram-positive pathogens and Gram-negative pathogens,[3]; [10],stronger inhibitory activity as well as broad spectrum activity
same,Inhibitory activity against both Gram-positive pathogens and Gram-negative pathogens,[3]; synthesis (with chitosan) at pH 9,stronger inhibitory activity as well as broad spectrum activity
same,Safety in animal trials,[5],no safety concerns
